Source: patent publication US6867316B2, “Platinum(II) complexes of N-substituted amino dicarboxylates and the preparation method thereof” (Board of Trustees, Ewha Womans University, priority 2003, dated 2005)
pIC50: −log10 of the molar value.

Legend:
[1] = system: leukemia L1210 cell line; assay: Antitumor activity bioassay against leukemia L1210, T/C (%) at given dosage; format: in vivo
[2] = system: leukemia L1210 cell line; assay: Antitumor activity bioassay against leukemia L1210 cell line (IC50); format: cell-based
Experimental: Antitumor activities of the platinum complexes prepared in the above Examples 1 to 9 were assayed against the leukemia L1210 cell line according to the known method (S. S. Lee, O.-S. Jung, C. O. Lee, S. U. Choi, M.-J. Jun, Y. S. Sohn, Inorg. Chim. Acta, 239, 133 (1995)), and the results are shown in Table 1.

Row | Molecule | T/C (%) ([1]; dosage amount 20 mg/kg) | T/C (%) ([1]; dosage amount 40 mg/kg) | pIC50 [2] | T/C (%) ([1]; dosage amount 4 mg/kg)
1 | N[C@@H]1CCCC[C@H]1N.O=C([O-])C[C@H](NC(=O)OCc1ccccc1)C(=O)[O-].[Pt+2] (racemic) [Pt(dach)(CbzAsp), (N-carbobenzyloxy-L-aspartato-O,O)(trans-(±)-1,2-diamino-cyclohexane-N,N)platinum(II)] | 175.0% | 193.8% | 4.58 | –
2 | N[C@@H]1CCCC[C@H]1N.O=C([O-])CC[C@H](NC(=O)OCc1ccccc1)C(=O)[O-].[Pt+2] (racemic) [Pt(dach)(CbzGlu), (N-carbobenzyloxy-L-glutamato-O,O)(trans-(±)-1,2-diaminocyclohexane-N,N)platinum(II)] | 170.0% | 207.5% | 4.19 | –
3 | (N-acetyl-L-aspartato-O,O)(trans-(±)-1,2-diaminocyclo-hexane-N,N)platinum(II) [Pt(dach)(AcAsp)] | 179.6% | 225.0% | 5.43 | –
4 | CC(=O)N[C@@H](CCC(=O)[O-])C(=O)[O-].N[C@@H]1CCCC[C@H]1N.[Pt+2] (racemic) [Pt(dach)(AcGlu), (N-acetyl-L-glutamato-O,O)(trans-(±)-1,2-diaminocyclo-hexane-N,N)platinum(II) complex] | 227.3% | 190.9% | 5.33 | –
5 | N.N.O=C([O-])C1(C(=O)[O-])CCC1.[Pt+2] [Carboplatin, reference compound] | – | 168/40% | 4.99 | –
6 | CCC(=O)N[C@@H](CCC(=O)[O-])C(=O)[O-].N[C@@H]1CCCC[C@H]1N.[Pt+2] (racemic) [Pt(dach)(ProGlu), (N-propionyl-L-glutamato-O,O)(trans-(±)-1,2-diaminocyclo-exane-N,N)platinum(II)] | 212.5% | 228.8% | 5.53 | –
7 | N.N.[Cl][Pt][Cl] [Cisplatin, reference compound] | – | – | 6.00 | 184/4%
8 | Cc1ccc(S(=O)(=O)N[C@@H](CCC(=O)[O-])C(=O)[O-])cc1.N[C@@H]1CCCC[C@H]1N.[Pt+2] (racemic) [Pt(dach)(TsGlu), (N-tosyl-L-glutamato-O,O)(trans-(±)-1,2-diaminocyclo-hexane-N,N)platinum(II)] | 176.3% | 191.3% | 4.75 | –
9 | CC(=O)N[C@@H](CC(=O)[O-])C(=O)[O-].CC(C)(CN)CN.[Pt+2] [Pt(dmpda)(AcAsp), (N-acetyl-L-aspartato-O,O)(2,2-dimethyl-1,3-propane-diamine-N,N)platinum(II)] | 146.2% | 160.4% | 5.50 | –
10 | CC(C)(C)C(=O)N[C@@H](CCC(=O)[O-])C(=O)[O-].N[C@@H]1CCCC[C@H]1N.[Pt+2] (racemic) [Pt(dach)(PivGlu), (N-pivalyl-L-glutamato-O,O)(trans-(±)-1,2-diaminocyclo-hexane-N,N)platinum(II)] | 211.3% | 212.5% | 5.65 | –
11 | N[C@@H]1CCCC[C@H]1N.O=C([O-])CC[C@@H](C(=O)[O-])N1C(=O)c2ccccc2C1=O.[Pt+2] (racemic) [Pt(dach)(PhthGlu), (N-phthaloyl-L-glutamato-O,O)(trans-(±)-1,2-diaminocyclo-hexane-N,N)platinum(II)] | 177.3% | 221.6% | 4.46 | –
